Reference: patent US11207320B2, “Compositions and methods for cancer expressing PDE3A or SLFN12” (The Broad Institute, Inc., priority 2015, dated 2021)

Key:
NCI-H1734 cells = assay: Compound library screening and dose-response retest, cell viability (ATP content, CellTiter-Glo); assay type: cell-based; conditions: NCI-H1734, 48 hours
Procedure: (§1) To identify anti-cancer compounds with cell-selective cytotoxic activity, an unbiased chemical screen was performed in two lung adenocarcinoma cell lines, A549 and NCI-H1734, both of which harbor oncogenic KRAS mutations and truncating STK11 mutations, and which were TP53 wild type and mutant (R273L), respectively. 1,924 compounds were screened from the Molecular Libraries Small-Molecule Repository validation set in the A549 and NCI-H1734 cell lines at a single concentration of 10 μM in 384-well format in duplicate. As a proxy for cellular viability, ATP content was measured after 48 hours of compound treatment.
(§2) 1500 NCI-H1734 or 1000 A549 cells were plated in a 384-well plate in 40 μl of RPMI supplemented with 10% Fetal Bovine Serum and 1% Pen/Strep. 24 hours after plating, a compound-library of 1924 small molecules was added at a concentration of 10 μM. Staurosporine was used a positive control for cytotoxicity at a concentration of 10 μM, and DMSO was used a negative control at a concentration of 1%. All compounds were incubated for 48 hours with indicated small molecules. […] Cell viability was assessed by adding 40 μl of a 25% CELLTITERGLO® (Promega) in PBS with a THERMO COMBI™ or multichannel-pipette and incubated for 10 minutes. The luminescence signal was read using a Perkin-Elmer EnVision. Viability percentage was calculated by normalizing to DMSO controls.

A549 cells = assay: as above; assay type: cell-based; conditions: A549, 48 hours
Procedure: as §1, §2

CCN(CC)c1ccc(C2=NNC(=O)CC2C)cc1[N+](=O)[O-] (centres unmarked) [DNMDP, 6-(4-(diethylamino)-3-nitrophenyl)-5-methyl-4,5-dihydropyridazin-3(2H)-one]
toxicity in dose-response analysis (NCI-H1734 cells): specifically toxic | effect on cell viability (A549 cells): did not affect cell viability
